Laboratory results published in US5138067A, “Lipid derivatives” (Shionogi & Co. Ltd., priority 1991, dated 1992).
pIC50: −log10 of the molar value. Read-outs that look alike come from different tables or passages of the source.

Tests used:
[1] = tested on: platelet aggregation induced by PAF; assay: PAF-induced platelet aggregation inhibition (method of Born, aggregometer, platelet rich plasma); type: cell-based; conditions: in vitro, rabbit PRP 50-55×10^4 /μl, 37° C., PAF C16 final 20 nM added 2 minutes after compound, read-out: IC50 (concentration of the test compounds which inhibit 50% platelet aggregation)
Procedure: Mature male rabbits (NIBS-JW, RABITON Institute Inc., weighing 2.2-2.5 kg) were used. […] (The total volume of blood sample in each tube was adjusted to 8 ml.)
The blood sample in each tube was gently shaken and then centrifuged for 10 minutes at 200 g at 22° C. to give platelet rich plasma (PRP). The remaining blood was further centrifuged at 3,000 rpm (about 1,900 g) for 10 minutes at 22° C. to give platelet-poor plasma (PPP).
PRP was diluted with PPP to prepare a blood sample whose platelet number was 50-55×10^4 /μl. The sample was then subjected to a platelet aggregation test.
A volume of 230 μl of PRP, whose platelet number was adjusted to 50-55×10^4 /μl, was placed in a measuring cuvette and set in the aggregometer. PRP was warmed at 37° C. for 1 minute with stirring at 1,200 rpm, and then a solution of the test compound [dimethylsulfoxide solution (1μl) of the compound+saline (9μl)] was added thereto. Exactly 2 minutes later, 10 μl of platelet activating factor (PAF, C16) (final concentration: 20 nM) was added as a platelet aggregating agent, and the change in light transmission caused by platelet aggregation was recorded.
The light transmissions of PRP and PPP were taken as 0% and 100% aggregation, respectively, and the maximum light transmission after addition of an aggregating agent was made the maximum aggregation. The inhibition rate of the platelet aggregation was expressed as the percentage of the maximum aggregation by a test compound to that by a control (Vehicle added group).

[2] = tested on: platelet aggregation induced by PAF; conditions: known property of the reference compound; cited from earlier work
[3] = Oryctolagus cuniculus, Platelet, 2 min

pIC50 [1, 3]	Compound	further results
4.10	CCCCCCCCCCCCCCCCOCC(CNS(=O)(=O)CCC[N+](C)(C)C)OC (stereo not drawn) [I a10, 1-hexadecyloxy-2-methoxy-3-(3-trimethylammoniopropylsulfonylamino)propane iodide]	–
5.23	CCCCCCCCCCCCCCCCCCNC(=O)OCC(CNS(=O)(=O)CC[n+]1ccsc1)OC (stereo not drawn) [I a12, 2-methoxy-1-octadecylcarbamoyloxy-3-(2-thiazolioethylsulfonylamino)propaneiodide]	–
6.44	CCCCCCCCCCCCCCCCCCNC(=O)SCC(CNS(=O)(=O)CCC[n+]1cccc2ccccc21)OC (stereo not drawn) [I a25, 2-methoxy-1-octadecylcarbamoylthio-3-(3-quinoliniopropylsulfonylamino)propane iodide]	–
6.41	CCCCCCCCCCCCCCCCCCNC(=O)OCC1(CNS(=O)(=O)CCC[n+]2cccc3ccccc32)CCCO1 (stereo not drawn) [I b2, 2-octadecylcarbamoyloxymethyl-2-(3-qunoliniopropylsulfonylaminomethyl)tetrahydrofuran iodido]	–
4.10	CCCCCCCCCCCCCCCCSCC(CNS(=O)(=O)CCC[N+](C)(C)C)COC (stereo not drawn) [I k4, 1-hexadecylthio-2-methoxymethyl-3-(3-trimethylammoniopropylsulfonylamino)propane iodide]	–
6.48	CCCCCCCCCCCCCCCCCCNC(=O)OCC(CNS(=O)(=O)CCC[n+]1cccc2ccccc21)OC(=O)NC (stereo not drawn) [I c3, 2-methylcarbamoyloxy-1-octadecylcarbamoyloxy-3(3-quinoliniopropylsulfonylamino)propane iodide]	–
6.07	CCCCCCCCCCCCCCCCSCC(CNS(=O)(=O)CCC[n+]1cccc2ccccc21)NC(=O)OC (stereo not drawn) [I e7, 1-hexadecylthio-2-methoxycarbonylamino-3-(3-quinoliniopropylsulfonylamino)propane iodide]	–
6.06	CCCCCCCCCCCCCCCCSCC(CNS(=O)(=O)CCC[n+]1cccc2ccccc21)NC(=O)NC (stereo not drawn) [I f4]	–
4.34	CCCCCCCCCCCCCCCCCCNC(=O)OCC(CNS(=O)(=O)CCC[n+]1ccncc1)OC (stereo not drawn) [I a6]	–
6.59	CCCCC[C@H](O)/C=C/[C@H]1[C@H](O)CC(=O)[C@@H]1CCCCCCC(=O)O [PGE1, reference compound]	inhibition of PAF-induced platelet aggregation (known) [2]: potently inhibit the PAF-induced platelet aggregation
5.75	CCCCCCCCCCCCCCCCCCNC(=O)OCC(CNS(=O)(=O)CCCC[n+]1ccsc1)OC (stereo not drawn) [I a13, 2-methoxy-1-octadecylcarbamoyloxy-3-(4-thiazoliobutylsulfonylamino)propaneiodide]	–
6.60	CCCCCCCCCCCCCCCCCCNC(=O)OCC(CNS(=O)(=O)CCC[n+]1cccc2ccccc21)Oc1ccon1 (stereo not drawn) [I j3, 2-(3-isoxazolyloxy)-1-octadecylcarbamoyloxy-3-(3-quinoliniopropylsulfonylamino)propane iodide]	–
–	2-methoxy-1-octadecylcarbamoylthio-3-(4-quinoliniopropylsulfonyamino)propane chloride [I a27]	pIC50 [1]: 6.13
6.40	CCCCCCCCCCCCCCCCCCNC(=O)OCC(CNS(=O)(=O)CCC[n+]1cccc2ccccc21)COC (stereo not drawn) [I k5, 2-methoxymethyl-1-octadecylcarbamoyloxy-3-(3-quinoliniopropylsulfonylamino)propane iodide]	–
5.44	CCCCCCCCCCCCCCCCSCC(CNS(=O)(=O)CCC[n+]1ccsc1)OC (stereo not drawn) [I a9, 1-hexadecylthio-2-methoxy-3-(3-thiazoliopropylsulfonylamino)propane iodide]	–
4.09	CCCCCCCCCCCCCCCCSCC(CNS(=O)(=O)CCC[N+](C)(C)C)OC (stereo not drawn) [I a8, 1-hexadecylthio-2-methoxy-3-(3-trimethylammoniopropylsulfonylamino)propaneiodide]	–
–	CCCCCCCCCCCCCCCCCCNC(=O)OCC(CNS(=O)(=O)CCCC[n+]1ccc2ccccc2c1)OC (stereo not drawn) [I a20]	pIC50 [1]: 4.80
4.32	CCCCCCCCCCCCCCCCCCNC(=O)OCC(CNS(=O)(=O)CCC[N+](C)(C)C)OC (stereo not drawn) [I a1, 2-methoxy-1-octadecylcarbamoyloxy-3-(3-trimethylammoniosulfonylamino)propane chloride]	–

pIC50 [1, 3]	Compound	further results
4.63	CCCCCCCCCCCCCCCCSCC(CNS(=O)(=O)CCC[N+](C)(C)C)n1nnc(C)n1 (stereo not drawn) [I h1, 1-hexadecylthio-2-(5-methyl-2H-tetrazol-2-yl)-3-(3-trimethylammoniopropylsulfonylamino)propane iodide]	–
5.88	CCCCCCCCCCCCCCCCCCNC(=O)OCC(CN(C(C)=O)S(=O)(=O)CCC[n+]1cccc2ccccc21)NC(C)=O (stereo not drawn) [I g6, 3-(N-acetyl-3-quinoliniopropylsulfonylamino)-2-acetamido-1-octadecylcarbamoyloxypropane iodide]	–
4.19	CCCCCCCCCCCCCCCCCCNC(=O)OCC(CNS(=O)(=O)CCC[N+]1(C)CCOCC1)OC (stereo not drawn) [I a4]	–
6.27	CCCCCCCCCCCCCCCCCCNC(=O)OCC(CNS(=O)(=O)CCC[n+]1cccc2ccccc21)NC(=O)OC (stereo not drawn) [I e5, 1-octadecylcarbamoyloxy-2-methoxycarbonylamino-3-(3-quinoliniopropylsulfonylamino)propane iodide]	–
6.47	CCCCCCCCCCCCCCCCCCNC(=O)OCC(COC)CN(C(C)=O)S(=O)(=O)CCC[n+]1cccc2ccccc21 (stereo not drawn) [I k6, 3-(N-acetyl-3-quinoliniopropylsulfonylamino)-2-methoxymethyl-1-octadecylcarbamoyloxypropane iodide]	–
5.53	CCCCCCCCCCCCCCCCOCC(CNS(=O)(=O)CCC[n+]1ccsc1)OC (stereo not drawn) [I a11, 1-hexadecyloxy-2-methoxy-3-(3-thiazoliopropylsulfonylamino)propane iodide]	–
6.22	CCCCCCCCCCCCCCCCOCC(CNS(=O)(=O)CCC[n+]1cccc2ccccc21)COC (stereo not drawn) [I k3, 1-hexadecyloxy-2-methoxymethyl-3-(3-quinoliniopropylsulfonylamino)propane iodide]	–
4.84	CCCCCCCCCCCCCCCCSCC(CNS(=O)(=O)CCC[N+](C)(C)C)NC(C)=O (stereo not drawn) [I g2, 2-acetamido-1-hexadecylthio-3-(3-trimethylammoniopropylsulfonylamino)propane iodide]	–
6.19	CCCCCCCCCCCCCCCCCCNC(=O)OCC(CNS(=O)(=O)CCC[n+]1cccc2ccccc21)OC (stereo not drawn) [I a7]	–
5.72	CCCCCCCCCCCCCCCCCCNC(=O)OCC(CNS(=O)(=O)CCC[n+]1ccsc1)OC (stereo not drawn) [I a2, 2-methoxy-1-octadecylcarbamoyloxy-3-(3-thiazoliopropylsulfonylamino)propane iodide]	–
5.71	CCCCCCCCCCCCCCCCCCNC(=O)SCC(CNS(=O)(=O)CCC[n+]1ccsc1)OC (stereo not drawn) [I a26, 2-methoxy-1-octadecylcarbamoylthio-3-(3-thiazoliniopropylsulfonylamino)propane iodide]	–
5.72	CCCCCCCCCCCCCCCCCCNC(=O)OCC(CNS(=O)(=O)CCC[n+]1cscc1C)OC (stereo not drawn) [I a5]	–
5.89	CCCCCCCCCCCCCCCCCCNC(=O)OCC(CNS(=O)(=O)CCCC[n+]1cccc2ccccc21)OC (stereo not drawn) [I a14]	–
5.28	CCCCCCCCCCCCCCCCCCNC(=O)OCC(CNS(=O)(=O)CCC[n+]1ccccc1)OC (stereo not drawn) [I a3]	–
5.74	CCCCCCCCCCCCCCCCCCNC(=O)OCC(CNS(=O)(=O)CCC[n+]1cccc2ccccc21)NC(C)=O (stereo not drawn) [I g4, 2-acetamido-1-octadecylcarbamoyloxy-3-(3-quinoliniopropylsulfonylamino)propane iodide]	–
4.87	CCCCCCCCCCCCCCCCCCNC(=O)OCC(CNS(=O)(=O)CCCC[n+]1ccc2ccccc2c1)OC (stereo not drawn) [I a16]	–
6.04	CCCCCCCCCCCCCCCCSCC(CNS(=O)(=O)CCC[n+]1cccc2ccccc21)OC(=O)NC (stereo not drawn) [I c1, 1-hexadecylthio-2-methylcarbamoyloxy-3-(3-quinoliniopropylsulfonylamino)propane iodide]	–
6.02	CCCCCCCCCCCCCCCCCCNC(=O)OCC(CNS(=O)(=O)CCC[n+]1cccc2ccccc21)NC(=O)NC (stereo not drawn) [I f3, 1-octadecylcarbamoyloxy-2-(3-methylureido)-3-(3-quinoliniopropylsulfonylamino)propane iodide]	–

Compound	pIC50 [1, 3]	further results
CCCCCCCCCCCCCCCCSCC(CNS(=O)(=O)CCC[n+]1cccc2ccccc21)NC(=O)OC(C)(C)C (stereo not drawn) [I e8, 2-tert-butoxycarbonylamino-1-hexadecylthio-3-(3-quinoliniopropylsulfonylamino)propane iodide]	5.71	–
CCCCCCCCCCCCCCCCCCNC(=O)OCC(CNS(=O)(=O)CCC[n+]1cccc2ccccc21)NC(=O)OC(C)(C)C (stereo not drawn) [I e6, 2-tert-butoxycarbonylamino-1-octadecylcarbamoyloxy-3-(3-quinoliniopropylsulfonylamino)propane iodide]	5.51	–
